Assay results: patent US5637583A, “Aminocyclohexylesters and uses thereof” (University of British Columbia, priority 1994, dated 1997)
Structures can show the parent of a compound that is named as a salt. Where two headings read alike, the source gives them in different places.

Key:
potassium channels = experiment: Electrical stimulation of left ventricle in rats (ERP; ancillary blockade of potassium channels); type: in vivo, rat; settings: infusion rate for 25% increase from control; anesthetized rats
Text: Two silver stimulating electrodes were inserted through the chest wall and implanted in the left ventricle. Square wave stimulation was used to determine threshold current for capture, ventricular fibrillation threshold current, and effective refractory period (Howard, P. G. and Walker, M. J. A., Proc. West. Pharmacol. Soc. 33:123-127 (1990)). […] The threshold current for capture is represented by "iT". The fibrillation threshold current is represented by "VFT". The effective refracting period is represented by "ERP".

phrenic nerve diaphragm = experiment: Nerve conduction blockade in vitro, phrenic nerve diaphragm; settings: Rattus norvegicus, read-out: concentration at which the twitch response from electrical stimulation is reduced to 50% of control value
Procedure: In order to establish the potency of the compounds to block nerve conduction, two in vitro assays were used. The first was the phrenic nerve diaphragm of the rat. […] Nerve blockade in these preparations is indicative of local anesthetic activity. Compounds were administered to the bath solution in increasing concentrations while the preparations were being stimulated with regular electrical impulses.

cardiac sodium channel [1] = target: T1, cardiac sodium channel (Rattus norvegicus, UniProt P15389); experiment: Electrical stimulation of left ventricle in rats (iT, VFT; cardiac sodium channel blockade); type: in vivo; settings: infusion rate for 25% increase from control; anesthetized rats
T1 sequence (P15389 whole entry, the tested form may be a part): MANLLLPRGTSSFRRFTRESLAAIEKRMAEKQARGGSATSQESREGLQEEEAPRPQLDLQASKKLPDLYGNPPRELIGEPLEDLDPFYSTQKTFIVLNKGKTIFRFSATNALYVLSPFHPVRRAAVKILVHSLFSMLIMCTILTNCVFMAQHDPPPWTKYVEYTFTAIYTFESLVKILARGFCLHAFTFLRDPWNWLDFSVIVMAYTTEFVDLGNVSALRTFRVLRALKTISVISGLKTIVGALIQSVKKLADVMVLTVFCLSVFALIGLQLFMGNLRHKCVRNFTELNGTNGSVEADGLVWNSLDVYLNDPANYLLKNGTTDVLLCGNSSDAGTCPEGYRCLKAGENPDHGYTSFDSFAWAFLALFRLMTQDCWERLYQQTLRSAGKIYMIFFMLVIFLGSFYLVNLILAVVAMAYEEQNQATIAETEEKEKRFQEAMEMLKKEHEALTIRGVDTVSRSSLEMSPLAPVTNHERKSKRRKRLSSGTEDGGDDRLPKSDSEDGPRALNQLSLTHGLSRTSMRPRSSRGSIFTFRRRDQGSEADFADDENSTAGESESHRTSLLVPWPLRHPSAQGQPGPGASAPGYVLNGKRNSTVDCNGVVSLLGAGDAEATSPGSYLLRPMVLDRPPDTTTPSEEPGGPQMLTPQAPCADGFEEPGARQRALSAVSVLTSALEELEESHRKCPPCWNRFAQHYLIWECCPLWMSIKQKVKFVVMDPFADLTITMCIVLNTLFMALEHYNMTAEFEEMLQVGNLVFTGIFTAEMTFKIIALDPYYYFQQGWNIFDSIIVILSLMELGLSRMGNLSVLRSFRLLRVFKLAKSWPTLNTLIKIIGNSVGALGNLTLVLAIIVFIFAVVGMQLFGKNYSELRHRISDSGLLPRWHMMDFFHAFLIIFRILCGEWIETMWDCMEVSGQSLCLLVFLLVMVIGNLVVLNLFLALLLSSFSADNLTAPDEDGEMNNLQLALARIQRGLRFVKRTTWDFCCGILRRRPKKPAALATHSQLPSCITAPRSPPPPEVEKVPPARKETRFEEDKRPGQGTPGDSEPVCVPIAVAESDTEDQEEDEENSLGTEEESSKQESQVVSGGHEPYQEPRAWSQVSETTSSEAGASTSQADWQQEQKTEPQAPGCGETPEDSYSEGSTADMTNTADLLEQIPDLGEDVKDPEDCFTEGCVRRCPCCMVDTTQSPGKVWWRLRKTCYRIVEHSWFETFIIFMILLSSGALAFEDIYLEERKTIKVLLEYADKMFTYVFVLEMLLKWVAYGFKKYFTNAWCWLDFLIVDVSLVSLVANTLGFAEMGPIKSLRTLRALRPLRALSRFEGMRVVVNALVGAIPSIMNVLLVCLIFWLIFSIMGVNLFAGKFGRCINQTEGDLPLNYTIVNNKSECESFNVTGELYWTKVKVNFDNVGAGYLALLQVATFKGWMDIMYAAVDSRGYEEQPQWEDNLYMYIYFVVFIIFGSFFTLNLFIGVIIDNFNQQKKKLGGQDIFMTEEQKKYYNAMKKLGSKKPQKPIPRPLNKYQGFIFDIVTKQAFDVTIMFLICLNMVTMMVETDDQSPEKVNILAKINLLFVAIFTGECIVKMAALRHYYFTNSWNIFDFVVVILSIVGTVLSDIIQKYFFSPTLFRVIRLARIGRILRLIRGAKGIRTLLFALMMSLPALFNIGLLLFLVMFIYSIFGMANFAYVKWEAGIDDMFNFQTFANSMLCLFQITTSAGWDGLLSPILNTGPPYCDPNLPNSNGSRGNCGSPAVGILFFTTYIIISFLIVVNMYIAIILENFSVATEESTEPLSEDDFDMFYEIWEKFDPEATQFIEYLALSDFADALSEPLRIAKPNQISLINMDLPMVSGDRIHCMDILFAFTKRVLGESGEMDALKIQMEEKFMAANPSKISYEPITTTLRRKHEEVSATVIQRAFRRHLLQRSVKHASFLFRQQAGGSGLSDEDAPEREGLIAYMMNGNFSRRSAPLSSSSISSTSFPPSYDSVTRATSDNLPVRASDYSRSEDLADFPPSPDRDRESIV
Procedure: Rats were prepared according to the preceding procedure. Two silver stimulating electrodes were inserted through the chest wall and implanted in the left ventricle. Square wave stimulation was used to determine threshold current for capture, ventricular fibrillation threshold current, and effective refractory period (Howard, P. G. and Walker, M. J. A., Proc. West. Pharmacol. Soc. 33:123-127 (1990)). Table 5 contains ED25 values for these indices of cardiac sodium channel blockade, where the ED25 is the infusion rate in micromoles/kg/minute of compound required to elicit a 25% increase from control. The increases in refractoriness indicate ancillary blockade of potassium channels. The threshold current for capture is represented by "iT". The fibrillation threshold current is represented by "VFT". The effective refracting period is represented by "ERP".

[2] = system: hypogastric nerve vas deferens; experiment: Nerve conduction blockade in vitro, hypogastric nerve vas deferens; settings: read-out: concentration at which the twitch response from electrical stimulation is reduced to 50% of control value
Procedure: In order to establish the potency of the compounds to block nerve conduction, two in vitro assays were used. The first was the phrenic nerve diaphragm of the rat. The second was the hypogastric nerve vas deferens. Nerve blockade in these preparations is indicative of local anesthetic activity. Compounds were administered to the bath solution in increasing concentrations while the preparations were being stimulated with regular electrical impulses.

[3] = system: cardiac potassium channel; experiment: ECG parameters in anesthetized rats (QT; ancillary cardiac potassium channel blockade); type: in vivo, rat; settings: i.v. bolus, Q-T interval
Procedure: Various ECG parameters were measured. […] The increases in P-R interval, QRS interval and RSh indicate cardiac sodium channel blockade while the increase in Q-T interval indicates ancillary cardiac potassium channel blockade which is the property of a type 1 a antiarrhythmic.

[4] = system: central nervous system of the rat; experiment: Opioid-like effects during in vivo tests
Text: This provides evidence that some of the compounds may have analgesic activity through activation of opioid receptors. Examination of members of this series of compounds by analgesic assays and binding studies show the presence of opioid binding and activity.

cardiac sodium channel [5] = target: T1, cardiac sodium channel; experiment: Whole cell voltage clamp tests, single isolated adult rat cardiac cells; type: cell-based
Procedure: In order to directly measure cardiac sodium channel blockade, standard whole cell voltage clamp tests were carried out using single isolated adult rat cardiac cells. Results in the form of EC50 values, which are micromolar concentrations required to produce a 50% reduction in sodium current, are presented in Table 6.

[6] = system: conscious rats subject to coronary artery occlusion; experiment: Antiarrhythmic efficacy: incidence of cardiac arrhythmias in conscious rats subject to coronary artery occlusion; type: in vivo, rat; settings: score 0-9 per Table 2, 30 min after occlusion
Procedure: Antiarrhythmic efficacy was assessed by investigating the effect of a compound on the incidence of cardiac arrhythmias in conscious rats subject to coronary artery occlusion. Rats weighing 200-300 gms were subjected to preparative surgery and assigned to groups in a random block design. In each case, the animal was anesthetized with halothane during surgical preparation. The left femoral artery was cannulated for measurement of mean arterial blood pressure and withdrawal of blood samples. The left femoral vein was also cannulated for injection of drugs. The thoracic cavity was opened and a polyethylene occluder loosely placed around the left anterior descending coronary artery. The thoracic cavity was then closed. ECG was recorded by insertion of electrodes placed along the anatomical axis of the heart. All cannulae and electrode leads were exteriorized in the mid scapular region. In random and double-blind manner, about 0.5 to 2 hours post-surgery, an infusion of vehicle, or the compound to be tested was given. After 15 minutes infusion, the occluder was pulled so as to produce coronary artery occlusion. ECG, arrhythmias, blood pressure, heart rate and mortality were monitored for 30 minutes after occlusion. Arrhythmias were recorded as ventricular tachycardia (VT) and ventricular fibrillation (VF) and scored according to Curtis, M. J. and Walker, M. J. A., Cardiovasc.
VPB=ventricular premature beats
VT=ventricular tachycardia
VF=ventricular fibrillation
Occlusion is associated with increases in R-wave height and "S-T" segment elevation; and an occluded zone (measured after death by cardiogreen dye perfusion) in the range of 25%-50% of total left-ventricular weight.

cardiac sodium channel [7] = target: T1, cardiac sodium channel; experiment: ECG parameters in anesthetized rats (RSh, PR, QRS; cardiac sodium channel blockade); type: in vivo; settings: i.v. bolus; for ED25 PR (dose required to produce a 25% increase): P-R interval
Procedure: Rats weighing 200-250 gms were used in this example. Animals were anesthetized with 60 mg/kg pentobarbitone i.p. The carotid artery and jugular vein were cannulated for measurement of blood pressure and drug injection, respectively. ECG was recorded by insertion of electrodes placed along the anatomical axis of the heart. All compounds were given as bolus injections.
Various ECG parameters were measured. The most sensitive of these for measuring sodium channel blockade is RSh (J. Pharmacology Methods 27:51-58 (1992)). Table 4 describes the results of the tests as ED25 (micromoles/kg) which are the doses required to produce a 25% increase in the parameter measured (ne=not estimated). The increases in P-R interval, QRS interval and RSh indicate cardiac sodium channel blockade while the increase in Q-T interval indicates ancillary cardiac potassium channel blockade which is the property of a type 1 a antiarrhythmic.

[8] = phrenic nerve diaphragm, in vitro
[9] = hypogastric nerve vas deferens, in vitro
[10] = whole cell voltage clamp, isolated adult rat cardiac cells, read-out: EC50 (concentration required to produce a 50% reduction in sodium current)

SMILES | ED25 ERP (effective refractory period) (potassium channels) | IC50 (phrenic nerve diaphragm; [8]) | ED25 VFT (fibrillation threshold current) (cardiac sodium channel [1]) | ED25 iT (threshold current for capture) (cardiac sodium channel [1]) | IC50 [2, 9] | ED25 QT (dose required to produce a 25% increase) [3] | opioid-like effects on the central nervous system [4] | EC50 (cardiac sodium channel [5]; [10]) | AS (arrhythmia score) ([6]; dose 5 micromoles/kg/min infusion) | ED25 RSh (dose required to produce a 25% increase) (cardiac sodium channel [7]) | AS (arrhythmia score) ([6]; dose 20 micromoles/kg/min infusion) | ED25 PR (dose required to produce a 25% increase) (cardiac sodium channel [7]) | IC50 (phrenic nerve diaphragm) | IC50 [2] | EC50 (cardiac sodium channel [5])
Cl.O=C(Cc1csc2ccccc12)O[C@@H]1CCCC[C@H]1N1CCOCC1 (racemic) [Compound #6, (±)-trans-[2-(4-morpholinyl)cyclohexyl]benzo[b]thiophene-3-acetate monohydrochloride] | 7 µmol/kg/min | 30 µM | 9 µmol/kg/min | 12 µmol/kg/min | 100 µM | 79 µmol/kg | induced opioid-like effects on the central nervous system of the rat | 150 µM | 1.8 | 100 µmol/kg | – | – | – | – | –
O=C(COc1cccc2ccccc12)O[C@@H]1CCCC[C@H]1N1CCCC1 (relative stereo) [Compound #2, (±)-trans-[2-(1-pyrrolidinyl)cyclohexyl](1-naphthoxy)acetate monohydrochloride] | 3 µmol/kg/min | 120 µM | 2 µmol/kg/min | 5 µmol/kg/min | 25 µM | 53 µmol/kg | – | 50 µM | – | 11 µmol/kg | 4 | 23 µmol/kg | – | – | –
O=C(COc1ccc(Cl)c(Cl)c1)O[C@@H]1CCCC[C@H]1N1CCCC1 (relative stereo) [Compound #1, (±)-trans-[2-(1-pyrrolidinyl)cyclohexyl](3,4-dichlorophenoxy)acetate monohydrochloride] | 4 µmol/kg/min | – | 3 µmol/kg/min | 6 µmol/kg/min | – | 78 µmol/kg | – | – | – | 10 µmol/kg | – | 17 µmol/kg | 90 µM | 40 µM | 200 µM
